Reference: PubChem BioAssay (NCI)
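All cell lines were grown in 96-well plates and treated with compound for 48 hours. TGI: concentration producing complete growth inhibition.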

Experiments:
Experiment in all cases: NCI-60 cell line screen, 48 h
ACHN renal = test system: ACHN renal
HCC-2998 colon = test system: HCC-2998 colon
HCT-116 colon = test system: HCT-116 colon
HOP-92 NSCLC = test system: HOP-92 NSCLC
NCI-H460 lung = test system: NCI-H460 lung
OVCAR-5 ovarian = test system: OVCAR-5 ovarian
OVCAR-8 ovarian = test system: OVCAR-8 ovarian
RXF 393 renal = test system: RXF 393 renal
SF-539 CNS = test system: SF-539 CNS
UO-31 renal = test system: UO-31 renal

| SMILES | TGI (ACHN renal) [µM] | TGI (HCC-2998 colon) [µM] | TGI (HCT-116 colon) [µM] | TGI (HOP-92 NSCLC) [µM] | TGI (NCI-H460 lung) [µM] | TGI (OVCAR-5 ovarian) [µM] | TGI (OVCAR-8 ovarian) [µM] | TGI (RXF 393 renal) [µM] | TGI (SF-539 CNS) [µM] | TGI (UO-31 renal) [µM] |
| --- | --- | --- | --- | --- | --- | --- | --- | --- | --- | --- |
| NC1(c2cc3ccccc3s2)CCCC1 | > 100 | 46.1 | > 100 | > 100 | > 100 | > 100 | > 100 | > 100 | 45.3 | > 100 |
| O=C(/C=C/c1ccc2c(c1)OCO2)c1ccc(O)cc1 | 59.4 | 32.1 | 26.2 | 28.8 | 28.6 | 35.1 | 3.11 | 29.6 | 32.5 | 26.2 |
| S=C(N/N=C(/c1ccccc1)c1ccccn1)N(Cc1ccccn1)Cc1ccccn1 | 0.74 |  | 1.59 | 1.45 | 4.7 | 3.37 | 1.13 | 2.74 | 3.45 | 1.65 |
| Nc1nccc(-c2c[nH]c3cc(Br)ccc23)n1 | 66 | 64.9 | 40.2 | 63.8 | > 100 | 49 | > 100 | 49.3 | > 100 | 39 |
| Cc1ccccc1OC(C)C(=O)NN1C(=O)CSC1c1ccccc1 (stereo unspecified) | > 100 | > 100 | > 100 | > 100 | > 100 | > 100 | > 100 | > 100 | > 100 | > 100 |
| CC(=O)Nc1nc(NC(C)=O)c2[nH]c(CO)nc2n1 | > 100 | > 100 | > 100 | > 100 | > 100 | > 100 | > 100 | > 100 | > 100 | > 100 |
| c1ccc2c(c1)Cn1c-2nc2ccccc21 | > 100 | > 100 | > 100 | > 100 | > 100 | > 100 | > 100 | > 100 | > 100 | 23 |
| COc1ccc2cc1Oc1ccc(cc1)C[C@H]1c3cc(c(OC)cc3CCN1C)Oc1c(O)c(OC)cc3c1[C@H](C2)N(C)CC3 |  | 24.7 | 36 | 26.9 | 45.2 | 99.6 | 8.43 | 45 | 41.6 | 58.8 |
| COc1ccc(-c2[nH]c3c4c(nc5c(c24)C(=O)CC(C)(C)C5)CC(C)(C)C3)cc1 | > 100 | > 100 | > 100 | > 100 | > 100 | > 100 | > 100 | > 100 | > 100 | > 100 |
| O=C(OCc1ccccc1)N1CCNCCN(C(=O)OCc2ccccc2)CCNCC1 | > 100 |  | 42.9 | > 100 | 49.4 | > 100 | > 100 | > 100 | 29.2 | 38.5 |
| CC(=O)Nn1c(=S)[nH]c2ccccc21 | > 100 | > 100 | > 100 | > 100 | > 100 | > 100 | > 100 | > 100 |  | > 100 |
